Data taken from patent US20260049088A1, “TRICYCLIC HETEROCYCLIC DERIVATIVES, COMPOSITIONS AND USES THEREOF” (Danatlas Pharmaceuticals Co., Ltd., priority 2023, published 2026).
pIC50: −log10 of the molar value.

What follows are compounds tested against T1, hPARG (Homo sapiens, UniProt Q86W56) (assay: PARG enzymatic activity assay (HTRF)). Conditions: C-terminal His6-tag hPARG 65 pM, biotinylated-NAD ribosylated PARP1 substrate 8 nM.
T1 construct: made in house; host or cells: E. coli
Assay type: biochemical
Description: HTRF assay was used to measure the ability of compounds to inhibit the activity of […] in vitro. C-terminal His6—tag PARG expressed in E. coli was purified and stored at −80° C. in aliquots. Assay measurements were performed with 1×buffer comprising 50 mM Tris pH 7.4, 0.1 mg/mL BSA, 3 mM EDTA, 0.4 mM EGTA, 1 mM DTT, 50 mM KCl and 0.01% Tween 20. Compounds dissolved in DMSO were plated into a 384-well assay plate (PerkinElmer, Catalog #: 6008280) in duplicate using a dispenser (Labcyte, Echo 665), and tested on a 10-point 4-fold serial dilution. Add 5 μL Enzyme mix [hPARG (C-terminal His6—tag, 4.2 μM), 65 pM final] to the test wells. The plates were covered and left to incubate for 60 minutes at RT before the addition of 5 μL substrate mix [biotinylated-NAD ribosylated PARP1 (6.1 μM), 8 nM final] to initiate reaction. After incubating 10 minutes at RT, add 2.5 μL Streptavidin-Eu cryptate (Cisbio, Catalog #: 610SAKLA) and 2.5 μL Mab anti 6HIS-XL665 (Cisbio, Catalog #: 61HISXLA) to the plate, and incubate for 60 minutes at RT. Read on a multimode plate reader (PerkinElmer, Envision 2015) in time-resolved fluorescence (TRF) mode, with excitation at 337 nm and emission at both 620 nm and 665 nm. Average HTRF signal of high control (Wells with 1% DMSO) was calculated and as Vehicle Control (VC). Average HTRF signal of low control (no Enzyme) was calculated and as Positive control (PC).
IC50 values were determined by fitting the data to the standard 4 parameters with Hill Slope using GraphPad Prism software.

T1 sequence (Q86W56 whole entry): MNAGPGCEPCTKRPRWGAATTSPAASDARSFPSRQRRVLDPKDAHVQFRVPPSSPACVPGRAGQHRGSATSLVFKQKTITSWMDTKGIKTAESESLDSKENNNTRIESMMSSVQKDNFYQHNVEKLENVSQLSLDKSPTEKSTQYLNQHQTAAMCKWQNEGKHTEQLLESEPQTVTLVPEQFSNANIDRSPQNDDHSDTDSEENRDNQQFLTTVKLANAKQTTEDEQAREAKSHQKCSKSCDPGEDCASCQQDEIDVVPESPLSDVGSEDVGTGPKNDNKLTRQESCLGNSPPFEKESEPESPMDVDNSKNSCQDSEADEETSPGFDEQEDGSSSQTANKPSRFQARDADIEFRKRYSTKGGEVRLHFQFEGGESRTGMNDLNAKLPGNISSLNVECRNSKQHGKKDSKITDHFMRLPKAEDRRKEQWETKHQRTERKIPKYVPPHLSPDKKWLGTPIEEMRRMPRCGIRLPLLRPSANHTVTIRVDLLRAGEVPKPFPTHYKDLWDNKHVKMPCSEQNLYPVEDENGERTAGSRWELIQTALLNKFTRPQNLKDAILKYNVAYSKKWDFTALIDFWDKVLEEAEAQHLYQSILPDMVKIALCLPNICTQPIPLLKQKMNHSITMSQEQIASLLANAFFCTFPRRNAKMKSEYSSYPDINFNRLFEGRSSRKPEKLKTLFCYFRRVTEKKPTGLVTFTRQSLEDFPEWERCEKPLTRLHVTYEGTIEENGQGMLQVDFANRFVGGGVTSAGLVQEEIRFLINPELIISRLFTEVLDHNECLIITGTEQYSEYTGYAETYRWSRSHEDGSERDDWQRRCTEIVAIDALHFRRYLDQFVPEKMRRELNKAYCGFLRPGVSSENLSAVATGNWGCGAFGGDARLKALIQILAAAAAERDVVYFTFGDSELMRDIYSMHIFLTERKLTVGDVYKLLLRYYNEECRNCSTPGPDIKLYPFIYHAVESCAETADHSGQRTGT

| SMILES | pIC50 |
| --- | --- |
| N#CC1(NS(=O)(=O)c2ccc3c4c(N5CCn6cncc6C5)ncnc4n(-c4nnc(C(F)F)s4)c3c2)CC1 [Example 45, N-(1-Cyanocyclopropyl)-9-(5-(difluoromethyl)-1,3,4-thiadiazol-2-yl)-4-(5,6-dihydroimidazo[1,5-a]pyrazin-7(8H)-yl)-9H-pyrimido[4,5-b]indole-7-sulfonamide] | ≥ 7.00 |
| N#CC1(NS(=O)(=O)c2ccc3c4c(N5CCn6cnnc6C5)ncnc4n(-c4nnc(C(F)F)s4)c3c2)CC1 [Example 46, N-(1-Cyanocyclopropyl)-9-(5-(difluoromethyl)-1,3,4-thiadiazol-2-yl)-4-(5,6-dihydro-[1,2,4]triazolo[4,3-a]pyrazin-7(8H)-yl)-9H-pyrimido[4,5-b]indole-7-sulfonamide] | ≥ 7.00 |
| Cc1nnc2n1CCN(c1ncnc3c1c1ccc(S(=O)(=O)NC4(C#N)CC4)cc1n3-c1nnc(C(F)F)s1)C2 [Example 47, N-(1-Cyanocyclopropyl)-9-(5-(difluoromethyl)-1,3,4-thiadiazol-2-yl)-4-(3-methyl-5,6-dihydro-[1,2,4]triazolo[4,3-a]pyrazin-7(8H)-yl)-9H-pyrimido[4,5-b]indole-7-sulfonamide] | ≥ 7.00 |
| CN1CCN(c2ncnc3c2c2ccc(S(=O)(=O)NC4(C#N)CC4)cc2n3-c2nnc(C(F)F)s2)CC12CC2 [Example 48, N-(1-Cyanocyclopropyl)-9-(5-(difluoromethyl)-1,3,4-thiadiazol-2-yl)-4-(4-methyl-4,7-diazaspiro[2.5]octan-7-yl)-9H-pyrimido[4,5-b]indole-7-sulfonamide] | ≥ 7.00 |
| N#CC1(NS(=O)(=O)c2ccc3c4c(N5CCn6ncnc6C5)ncnc4n(-c4nnc(C(F)F)s4)c3c2)CC1 [Example 49, N-(1-Cyanocyclopropyl)-9-(5-(difluoromethyl)-1,3,4-thiadiazol-2-yl)-4-(5,6-dihydro-[1,2,4]triazolo[1,5-a]pyrazin-7(8H)-yl)-9H-pyrimido[4,5-b]indole-7-sulfonamide] | ≥ 7.00 |
| CCN(CC)[C@@H]1CCN(c2ncnc3c2c2ccc(S(=O)(=O)NC4(C#N)CC4)cc2n3-c2nnc(C(F)F)s2)C[C@@H]1OC [Example 50, N-(1-Cyanocyclopropyl)-4-((3S,4R)-4-(diethylamino)-3-methoxypiperidin-1-yl)-9-(5-(difluoromethyl)-1,3,4-thiadiazol-2-yl)-9H-pyrimido[4,5-b]indole-7-sulfonamide] | ≥ 7.00 |
| CCN(CC)[C@@H]1CCN(c2ncnc3c2c2ccc(S(=O)(=O)NC4(C#N)CC4)cc2n3-c2nnc(C(F)F)s2)CC1(F)F [Example 51, (R)-N-(1-Cyanocyclopropyl)-4-(4-(diethylamino)-3,3-difluoropiperidin-1-yl)-9-(5-(difluoromethyl)-1,3,4-thiadiazol-2-yl)-9H-pyrimido[4,5-b]indole-7-sulfonamide] | ≥ 7.00 |
| CCN1CCCC12CCN(c1ncnc3c1c1ccc(S(=O)(=O)NC4(C#N)CC4)cc1n3-c1nnc(C(F)F)s1)CC2 [Example 52, N-(1-Cyanocyclopropyl)-9-(5-(difluoromethyl)-1,3,4-thiadiazol-2-yl)-4-(1-ethyl-1,8-diazaspiro[4.5]decan-8-yl)-9H-pyrimido[4,5-b]indole-7-sulfonamide] | ≥ 7.00 |
| Cc1cnc2n1CCN(c1ncnc3c1c1ccc(S(=O)(=O)NC4(C#N)CC4)cc1n3-c1nnc(C(F)F)s1)C2 [Example 53, N-(1-Cyanocyclopropyl)-9-(5-(difluoromethyl)-1,3,4-thiadiazol-2-yl)-4-(3-methyl-5,6-dihydroimidazo[1,2-a]pyrazin-7(8H)-yl)-9H-pyrimido[4,5-b]indole-7-sulfonamide] | ≥ 7.00 |
| CCc1cnc2n1CCN(c1ncnc3c1c1ccc(S(=O)(=O)NC4(C#N)CC4)cc1n3-c1nnc(C(F)F)s1)C2 [Example 54, N-(1-Cyanocyclopropyl)-9-(5-(difluoromethyl)-1,3,4-thiadiazol-2-yl)-4-(3-ethyl-5,6-dihydroimidazo[1,2-a]pyrazin-7(8H)-yl)-9H-pyrimido[4,5-b]indole-7-sulfonamide] | ≥ 7.00 |
